This assay has as its target T1, hα4 and β1 integrins (Homo sapiens, UniProt P05556+P13612).
T1 construct: expressed in transfected cells; host or cells: CHO cells
Kind of assay: In vitro inhibition of binding between CHO cells expressing hα4 and β1 integrins and Eu3+-hVCAM-1 D1D7-IgG. The settings on record: for Ki: CHO cells expressing hα4 and β1 integrins, Eu3+-hVCAM-1 D1D7-IgG ligand, without HSA; for IC50: in the presence of 3% human serum albumin (HSA final concentration 3%). As for the experimental part:
CHO cells which forcibly expressed hα4 and β1 integrins through transfection thereof, were inoculated into a Costar 3599 plate (3×10^4 cells/100 μl/well), and cultured for two days. The cells in the wells were washed two times with buffer A*, and then Eu^3+-hVCAM-1 D1D7-IgG diluted with assay buffer** to 2 nM was added in an amount of 50 μl/well. The substance under test diluted with 26 DMSO-assay buffer (in the co-presence or absence of 6% human serum albumin) was added in an amount of 50 μl/well (adding separately diluted solution to the wells for performing Scatchard analysis), the contents were stirred for 5 minutes with a plate mixer, and then the plate was left to stand still for one hour at room temperature. The binding inhibitory activity in the presence of human serum albumin (HSA) was examined by diluting the specimen with 26 DMSO-assay buffer containing 6% HSA (SIGMA Corp., c/n A-1653), and adding the resultant (HSA final concentration 3%). After 30 to 60 minutes of the addition of specimen, the plate contents were washed 4 times with buffer A at 4° C., an enhancing reagent (DELFIA SA) was added in an amount of 100 μl/well, and the plate was shaken for 5 minutes using a plate mixer. Subsequently, the fluorescence intensity was measured with a time-resolved fluorometer (DELFIA Wallac). The IC50 of the substance under test (the concentration for 50% inhibition of the binding between CHO cells and Eu^3+-hVCAM-1 D1D7-IgG) was determined from the binding rate obtained from the calculating expression of [(FT−FNS)−(FI−FNS)]/[(FT−FNS)]×100. Here, FT represents the fluorescence intensity of a well not containing the substance under test; FNS represents the fluorescence intensity of a well not containing the substance under test and hVCAM-1 D1D7-IgG; and FI represents the fluorescence intensity of a well containing the substance under test. The Kd value which represents the strength of binding, and Bmax (maximum binding amount) were estimated to be in the range of 0.06 to 20 nM according to the Scatchard analysis method. The evaluation results of the Ki value of the substance under test, and of the IC50 value in the presence of 3% HSA are presented in Tables 2 to 7.
The Ki value was calculated according to the above-described expression. ([L] is the ligand concentration)
[* buffer A: 25 mM HEPES (pH 7.5), 150 mM NaCl, 1 mM Ca^2+, 1 mM Mg^2+, 4 mM Mn2+;
** assay buffer: 25 mM HEPES (pH=7.5), 150 mM NaCl, 1 mM Ca^2+, 1 mM Mg^2+, 4 mM Mn^2+, 0.1% BSA, 20 μM DTPA, with/without 6% ALBUMIN, HUMAN SERUM (C/N A-1653, SIGMA)]

T1 sequence (P13612 34-1032): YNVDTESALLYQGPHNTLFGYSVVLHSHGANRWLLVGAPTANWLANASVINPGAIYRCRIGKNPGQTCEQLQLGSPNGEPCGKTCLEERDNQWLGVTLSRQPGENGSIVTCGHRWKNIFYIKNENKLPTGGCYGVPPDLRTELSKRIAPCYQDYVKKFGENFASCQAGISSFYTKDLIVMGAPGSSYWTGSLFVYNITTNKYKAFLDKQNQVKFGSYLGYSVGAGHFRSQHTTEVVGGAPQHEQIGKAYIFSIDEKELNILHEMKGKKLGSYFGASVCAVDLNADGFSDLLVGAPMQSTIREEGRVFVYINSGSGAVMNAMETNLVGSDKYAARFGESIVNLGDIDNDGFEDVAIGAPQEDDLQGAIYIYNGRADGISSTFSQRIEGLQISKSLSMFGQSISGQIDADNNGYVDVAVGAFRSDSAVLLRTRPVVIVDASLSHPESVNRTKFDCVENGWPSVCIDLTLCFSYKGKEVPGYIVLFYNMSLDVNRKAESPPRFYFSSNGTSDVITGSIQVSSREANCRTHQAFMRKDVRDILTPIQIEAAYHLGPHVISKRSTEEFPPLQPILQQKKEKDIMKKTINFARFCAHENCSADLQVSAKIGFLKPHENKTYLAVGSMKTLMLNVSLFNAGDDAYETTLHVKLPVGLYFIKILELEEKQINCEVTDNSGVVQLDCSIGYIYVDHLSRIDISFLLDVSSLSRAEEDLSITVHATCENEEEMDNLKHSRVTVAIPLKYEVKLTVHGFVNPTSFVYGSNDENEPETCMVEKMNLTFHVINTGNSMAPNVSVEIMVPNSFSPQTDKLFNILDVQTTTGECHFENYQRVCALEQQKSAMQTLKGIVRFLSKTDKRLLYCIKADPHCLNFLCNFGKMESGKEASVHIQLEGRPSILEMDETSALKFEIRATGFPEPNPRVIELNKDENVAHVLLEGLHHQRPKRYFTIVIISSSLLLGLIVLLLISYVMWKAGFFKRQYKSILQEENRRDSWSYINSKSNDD
T1 sequence (P05556 21-798): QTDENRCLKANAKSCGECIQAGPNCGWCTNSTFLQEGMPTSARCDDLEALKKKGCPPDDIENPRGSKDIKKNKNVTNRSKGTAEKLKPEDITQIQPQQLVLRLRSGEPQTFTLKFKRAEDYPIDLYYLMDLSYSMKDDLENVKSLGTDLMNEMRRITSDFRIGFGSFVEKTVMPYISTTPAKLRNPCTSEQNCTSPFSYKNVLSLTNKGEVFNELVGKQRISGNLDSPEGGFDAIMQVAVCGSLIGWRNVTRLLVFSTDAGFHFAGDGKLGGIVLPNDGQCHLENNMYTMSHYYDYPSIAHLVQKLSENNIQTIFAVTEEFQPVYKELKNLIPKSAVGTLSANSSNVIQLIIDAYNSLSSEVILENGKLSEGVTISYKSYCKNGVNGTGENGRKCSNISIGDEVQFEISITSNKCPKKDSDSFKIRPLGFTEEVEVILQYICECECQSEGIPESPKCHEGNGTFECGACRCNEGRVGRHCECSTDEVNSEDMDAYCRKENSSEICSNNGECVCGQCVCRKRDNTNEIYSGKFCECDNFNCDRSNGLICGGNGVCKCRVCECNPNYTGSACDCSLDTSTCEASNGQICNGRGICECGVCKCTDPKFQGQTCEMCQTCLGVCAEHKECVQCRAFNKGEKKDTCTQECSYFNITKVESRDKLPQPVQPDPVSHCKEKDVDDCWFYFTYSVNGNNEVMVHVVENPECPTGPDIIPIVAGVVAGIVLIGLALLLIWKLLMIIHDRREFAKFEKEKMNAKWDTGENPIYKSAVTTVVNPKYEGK

With `CO[C@@H]1CN([C@H]2C[C@@H](CO[C@H]3CC[C@H](C(=O)O)CC3)N(C(=O)Cc3cc(Cl)c(NC(=O)c4cn(C)c5ccccc45)cc3Cl)C2)C[C@H]1OC` [Example 64, Trans-4-[1-[[2,5-dichloro-4-[(1-methyl-1H-indol-3-ylcarbonyl)amino]phenyl]acetyl]-(4S)-[(3R,4R)-dimethoxypyrrolidin-1-yl]-(2S)-pyrrolidinylmethoxy]cyclohexanecarboxylic acid], the affinity corresponds to a Ki of 5 nM and the IC50 (as a rule, the concentration at which inhibition is half-maximal) stood at 33 nM.

Consider `C[C@@H]1CN([C@H]2C[C@@H](CO[C@H]3CC[C@H](C(=O)O)CC3)N(C(=O)Cc3ccc(NC(=O)c4csc5ccccc45)c(Cl)c3)C2)C[C@H](C)O1` [Example 92, Trans-4-[1-[[4-[(benzo[b]thiophen-3-ylcarbonyl)amino]-3-chlorophenyl]acetyl]-(4S)-(cis-2,6-dimethylmorpholin-4-yl)-(2S)-pyrrolidinylmethoxy]cyclohexanecarboxylic acid], for which the affinity corresponds to a Ki of 1.2 nM and the IC50 stood at 10 nM.

Take `CC1(C)O[C@H]2CN([C@H]3C[C@@H](CO[C@H]4CC[C@H](C(=O)O)CC4)N(C(=O)Cc4cc(Cl)c(NC(=O)c5csc6ccccc56)cc4Cl)C3)C[C@H]2O1` [Example 75, Trans-4-[1-[[4-[(benzo[b]thiophen-3-ylcarbonyl)amino]-2,5-dichlorophenyl]acetyl]-(4S)-[(3a,6a-cis)-2,2-dimethyltetrahydro[1,3]dioxo[4,5-c]pyrrol-5-yl]-(2S)-pyrrolidinylmethoxy]cyclohexanecarboxylic acid]: the Ki – broadly, a dissociation constant, usually derived from enzyme kinetics or from competition with a known ligand – came out at 0.52 nM and the IC50 worked out at 12 nM.

Consider `Cn1cc(C(=O)Nc2cc(Cl)c(CC(=O)N3C[C@@H](N4CCN(CC(F)(F)F)CC4)C[C@H]3CO[C@H]3CC[C@H](C(=O)O)CC3)cc2Cl)c2ccccc21` [Example 122, Trans-4-[1-[[2,5-dichloro-4-[(1-methyl-1H-indol-3-ylcarbonyl)amino]phenyl]acetyl]-(4S)-[4-(2,2,2-trifluoroethyl)piperazin-1-yl]-(2S)-pyrrolidinylmethoxy]cyclohexanecarboxylic acid], for which the Ki stood at 8.8 nM and the IC50 was determined as 36 nM.

For the compound `CO[C@@H]1CN([C@H]2C[C@@H](CO[C@H]3CC[C@H](C(=O)O)CC3)N(C(=O)Cc3cc(Cl)c(NC(=O)c4coc5ccccc45)cc3Cl)C2)C[C@H]1OC` [Example 65, Trans-4-[1-[[4-[(benzo[b]furan-3-ylcarbonyl)amino]-2,5-dichlorophenyl]acetyl]-(4S)-[(3R,4R)-dimethoxypyrrolidin-1-yl]-(2S)-pyrrolidinylmethoxy]cyclohexanecarboxylic acid], the Ki was determined as 2.9 nM and the IC50 was found to be 35 nM.

Regarding `COc1cc(CC(=O)N2C[C@@H](N3CCN(CC(F)(F)F)CC3)C[C@H]2CO[C@H]2CC[C@H](C(=O)O)CC2)ccc1NC(=O)c1cn(C)c2ccccc12` [Example 135, Trans-4-[1-[[3-methoxy-4-[(1-methyl-1H-indol-3-ylcarbonyl)amino]phenyl]acetyl]-(4S)-[4-(2,2,2-trifluoroethyl)piperazin-1-yl]-(2S)-pyrrolidinylmethoxy]cyclohexanecarboxylic acid], the Ki worked out at 1.7 nM and the IC50 was determined as 4.4 nM.

`Cn1cc(C(=O)Nc2cc(F)c(CC(=O)N3C[C@@H](N4CCN(C5CCCC5)CC4)C[C@H]3CO[C@H]3CC[C@H](C(=O)O)CC3)cc2Cl)c2ccccc21` [Example 142, Trans-4-[1-[[5-chloro-2-fluoro-4-[(1-methyl-1H-indol-3-ylcarbonyl)amino]phenyl]acetyl]-(4S)-[4-cyclopentylpiperazin-1-yl]-(2S)-pyrrolidinylmethoxy]cyclohexanecarboxylic acid]: the Ki was 4.7 nM and the IC50 was found to be 11 nM.

As for `CN(C)S(=O)(=O)N1CCN([C@H]2C[C@@H](CO[C@H]3CC[C@H](C(=O)O)CC3)N(C(=O)Cc3cc(Cl)c(NC(=O)c4cn(C)c5ccccc45)cc3Cl)C2)CC1` [Example 151, Trans-4-[1-[[2,5-dichloro-4-[(1-methyl-1H-indol-3-ylcarbonyl)amino]phenyl]acetyl]-(4S)-(4-N,N-dimethylsulfamoylpiperazin-1-yl)-(2S)-pyrrolidinylmethoxy]cyclohexanecarboxylic acid], the Ki was 4.2 nM and the IC50 came to 26 nM.

With `Cn1cc(C(=O)Nc2cc(F)c(CC(=O)N3C[C@@H](N4CCC(F)(F)CC4)C[C@H]3CO[C@H]3CC[C@H](C(=O)O)CC3)cc2Cl)c2ccccc21` [Example 101, Trans-4-[1-[[5-chloro-2-fluoro-4-[(1-methyl-1H-indol-3-ylcarbonyl)amino]phenyl]acetyl]-(4S)-(4,4-difluoropiperidin-1-yl)-(2S)-pyrrolidinylmethoxy]cyclohexanecarboxylic acid], the Ki stood at 4 nM and the IC50 stood at 17 nM.

Turning to `COc1cc(CC(=O)N2C[C@@H](N3CCN(CC(F)(F)F)CC3)C[C@H]2CO[C@H]2CC[C@H](C(=O)O)CC2)ccc1NC(=O)c1csc2ccccc12` [Example 133, Trans-4-[1-[[4-[(benzo[b]thiophen-3-ylcarbonyl)amino]-3-methoxyphenyl]acetyl]-(4S)-[4-(2,2,2-trifluoroethyl)piperazin-1-yl]-(2S)-pyrrolidinylmethoxy]cyclohexanecarboxylic acid], the affinity corresponds to a Ki of 1.3 nM and the IC50 turned out to be 3.3 nM.

On to `O=C(Nc1cc(F)c(CC(=O)N2C[C@@H](N3CCC4(CC4)C3)C[C@H]2CO[C@H]2CC[C@H](C(=O)O)CC2)cc1Cl)c1csc2ccccc12` [Example 39, Trans-4-[(4S)-(5-azaspiro[2.4]heptan-5-yl)-1-[[4-[(benzo[b]thiophen-3-ylcarbonyl)amino]-5-chloro-2-fluorophenyl]acetyl]-(2S)-pyrrolidinylmethoxy]cyclohexanecarboxylic acid], for which affinity was put at a Ki of 0.64 nM and the IC50 amounted to 4.9 nM.

Consider `O=C(Nc1cc(F)c(CC(=O)N2C[C@@H](N3CCN(Cc4ccccc4)CC3)C[C@H]2CO[C@H]2CC[C@H](C(=O)O)CC2)cc1Cl)c1csc2ccccc12` [Example 116, Trans-4-[(4S)-(4-benzylpiperazin-1-yl)-1-[[4-[(benzo[b]thiophen-3-ylcarbonyl)amino]-5-chloro-2-fluorophenyl]acetyl]-(2S)-pyrrolidinylmethoxy]cyclohexanecarboxylic acid], for which affinity was put at a Ki of 0.6 nM and the IC50 stood at 21 nM.

Turning to `CN(C)C1CCN([C@H]2C[C@@H](CO[C@H]3CC[C@H](C(=O)O)CC3)N(C(=O)Cc3cc(Cl)c(NC(=O)c4cn(C)c5ccccc45)cc3F)C2)CC1` [Example 109, Trans-4-[1-[[5-chloro-2-fluoro-4-[(1-methyl-1H-indol-3-ylcarbonyl)amino]phenyl]acetyl]-(4S)-[4-(N,N-dimethylamino)piperidin-1-yl]-(2S)-pyrrolidinylmethoxy]cyclohexanecarboxylic acid], the Ki turned out to be 3.6 nM and the IC50 was 5.2 nM.

Consider `CN1CCN([C@H]2C[C@@H](CO[C@H]3CC[C@H](C(=O)O)CC3)N(C(=O)Cc3cc(Cl)c(NC(=O)c4csc5ccccc45)cc3F)C2)CC1` [Example 111, Trans-4-[1-[[4-[(benzo[b]thiophen-3-ylcarbonyl)amino]-5-chloro-2-fluorophenyl]acetyl]-(4S)-(4-methylpiperazin-1-yl)-(2S)-pyrrolidinylmethoxy]cyclohexanecarboxylic acid], for which the affinity corresponds to a Ki of 0.29 nM and the IC50 was 1.2 nM.

On to `CO[C@H]1CN([C@H]2C[C@@H](CO[C@H]3CC[C@H](C(=O)O)CC3)N(C(=O)Cc3cc(Cl)c(NC(=O)c4cn(C)c5ccccc45)cc3F)C2)C[C@H]1OC` [Example 55, Trans-4-[1-[[5-chloro-2-fluoro-4-[(1-methyl-1H-indol-3-ylcarbonyl)amino]phenyl]acetyl]-(4S)-(cis-3,4-dimethoxypyrrolidin-1-yl)-(2S)-pyrrolidinylmethoxy]cyclohexanecarboxylic acid], for which the Ki worked out at 2.6 nM and the IC50 was 9.2 nM.

Values taken from US8129366B2, “VLA-4 inhibitory drug” (Daiichi Sankyo Company, Limited, priority 2005, dated 2012).
